Source: US20130323284A1, “USE OF mTOR INHIBITORS TO TREAT BACTERIAL INFECTION” (JAZZYA INVESTMENTS, priority 2012, published 2013)

Tested on: CYLD
Test: Immunoblot analysis of CYLD levels in Klebsiella pneumoniae infected cells
Type: cell-based
Conditions: U0126 10 mM; infected for 3 h; versus vehicle control
Procedure: An immunoblot analysis of CYLD levels in Klebsiella pneumoniae infected cells for 3 h in the presence of vehicle control (Kp) or PI3K inhibitor (LY294002, […]), AKT inhibitor ([…]), ERK inhibitor (U0126, […]) is shown. Membranes were reprobed for tubulin as a loading control.

Q: Which “Klebsiella pneumoniae induced production of CYLD in the presence of inhibitor” value does the source give for `N#CC(=C(/N)Sc1ccccc1N)/C(C#N)=C(\N)Sc1ccccc1N` [U0126] here?
A: PI3K-AKT-ERK dependent manner
